Reference: patent US20100075894A1, “REDUCING ER STRESS IN THE TREATMENT OF OBESITY AND DIABETES” (HARVARD UNIVERSITY, priority 2004, published 2010)

Tested on: IRE-1α^−/− and wild type (WT) fibroblasts
Assay: tunicamycin in IRE-1α+/+ and IRE-1α−/− fibroblasts
Format: cell-based, mouse
From the text: JNK activity was examined at indicated times following treatment with tunicamycin in IRE1a+/+ and IRE-1a−/− fibroblasts using an […] kinase assay and recombinant c-jun as substrate. JNK activity and total JNK levels (a). Phosphorylation of IRS-1 at ser307 residue in IRE1a+/+ and IRE-1a−/− fibroblasts following treatment with tunicamycin following IRS-1 immunoprecipitation (IP) and immunoblotting (IB) with an IRS-1 phosphoserine 307-specific antibody (b). Insulin (ins)-stimulated IRS-1 tyrosine phosphorylation and total IRS-1 in levels following treatment of IRE1a+/+ and IRE-1a−/− fibroblasts with tunicamycin.
(A) ER stress was induced in Fao liver cells by a 3-hour treatment with 5 μg/ml tunicamycin (Tun). Cells were subsequently stimulated with insulin (Ins). IRS-1 tyrosine and serine (Ser307) phosphorylation, Akt phosphorylation (Ser473), insulin receptor (IR) tyrosine phosphorylation, and their total protein levels were examined using either immunoprecipitation (IP) followed by immunoblotting (IB) or direct immunoblotting. (B) Quantitation of IRS-1 (tyrosine and Ser307), Akt (Ser473), and IR (tyrosine) phosphorylation under the experimental conditions described in (A) with normalization to protein levels for each molecule. (C) Inhibition of ER stress-induced (300 nM thapsigargin for 4 hours) Ser307 phosphorylation of IRS-1 by JNK-1 inhibitor, SP600125 (JNKi, 25 μM), (D) Quantitation of IRS-1 Ser307 phosphorylation under conditions described in (C). (E) Reversal of ER stress-induced inhibition of insulin-stimulated tyrosine phosphorylation (pY) of IRS-1 by a JNK inhibitor. (F) Quantitation of insulin-induced IRS-1 tyrosine phosphorylation levels described in (E). (G) JNK activity, Ser307 phosphorylation of IRS-1, and total IRS-1 levels at indicated times following tunicamycin treatment (Tun, 10 μg/ml for 1 hour) in IRE-1α^+/+ and IRE-1α^−/− fibroblasts. (H) Insulin-stimulated IRS-1 tyrosine phosphorylation and total IRS-1 levels following tunicamycin treatment (Tun, 10 μg/ml for 1 hour) in IRE-1α^+/+ and IRE-1α^−/− fibroblasts. […] All graphs show mean±SEM from at least 2 independent experiments and statistical significance from the controls is indicated by * with p<0.005.
In the presence of ER stress, increased phosphorylation of inositol requiring kinase-1α (IRE-1α) leads to recruitment of TNF-α receptor-associated factor 2 (TRAF2) protein and activates JNK (Urano et al., Science 287:664 (2000); incorporated herein by reference). To address whether ER stress-induced insulin resistance is dependent on intact IRE-1α, we measured JNK activation, IRS-1 serine phosphorylation, and insulin receptor signaling upon exposure of IRE-1α^−/− and wild type (WT) fibroblasts to tunicamycin. […]

Substance: tunicamycin
- insulin-stimulated tyrosine phosphorylation of IRS-1 (IRE-1α−/− cells): no such effect was detected
- insulin-stimulated tyrosine phosphorylation of IRS-1 (WT cells): inhibited
- JNK activation (WT fibroblasts): strong activation of JNK
- phosphorylation of IRS-1 at Ser307 (WT fibroblasts): stimulated
